Columns and labels:
Format in all cases: cell-based, human
HL-60 cells = test: Cell cycle analysis (PI, flow cytometry); conditions: for G2-M cells: 24 h
Procedure: (§1) To determine the effect of rilpivirine on cell-cycle distribution a flow cytometry-based analysis was performed after staining the untreated and treated cells with propidium iodide (PI) solution [22]. Briefly, 6 × 10^4 cells/well were seeded in 3 mL of medium per well in 6-well plates. After overnight incubation at 37 °C in 5% CO2, the cells were incubated with the test compounds for specified time points. The medium-containing cells were then taken out from the wells and transferred to FACS tubes. Cells were then pelleted by centrifugation at 300 g for 5 min. Afterward, cells were fixed by using 70% (v/v) ice-cold ethanol for 15 min and then again pelleted by centrifugation (300 g for 5 min). Finally, the cells were incubated with 200 µL of PI staining solution (50 μg/mL PI, 0.1% sodium citrate, 0.1 mg/mL RNase A, and 0.1% Triton X-100) for 1.5 h at room temperature in the dark. After the incubation period, the cells were analysed using a CytoFLEX flow cytometer (Beckman Coulter Inc., Brea, CA, USA). CytExpert software version 2.1 was used for data analysis and graph preparation.

K-562 cells = test: Cell cycle analysis (PI, flow cytometry); conditions: 20 μM, 24 h
Procedure: as §1

KG1 cells = test: Cell cycle analysis (PI, flow cytometry); conditions: 10 µM or 20 µM, 24 h
Procedure: as §1

NB4 cells = test: Cell cycle analysis (PI, flow cytometry); conditions: 20 μM, 24 h
Procedure: as §1

U-937 cells = test: Cell cycle analysis (PI, flow cytometry); conditions: 20 μM, 24 h
Procedure: as §1

[1] = tested on: caspase 3/7 in HL-60, NB4, K-562, and U-937 cells; test: Caspase-3/7 activity assay; conditions: 10 µM, 48 h, all cell lines
Procedure: Caspase-3/7 activity was measured after incubation of the cells with the test compounds for a specified time point using an Apo-ONE homogeneous caspase-3/7 kit (Promega, Madison, WI, USA) according to the manufacturer’s instructions. The signal was recorded by the EnVision multi-label plate reader (PerkinElmer, Beaconsfield, UK).

[2] = tested on: Aurora A kinase signalling pathway proteins in HL-60 and NB4 cells; test: Western blotting, concentration series; conditions: 24 h
Procedure: Western blotting was performed following a method described previously. Briefly, 8 × 10^5 to 1 × 10^6 cells were seeded in petri dishes with 8 to 10 mL of culture medium and incubated overnight at 37 °C, 5% CO2. Then, the cells were treated with the test compounds and further incubated for the specified time point. Cells were then lysed using a lysis buffer containing protease inhibitors, and proteins were extracted by centrifugation. Protein concentrations were determined by using a Bio-Rad DC^TM protein assay kit (Bio-Rad Laboratories, Hercules, CA, USA). A total of 20–30 μg of proteins was loaded onto each well of 4–20% polyacrylamide gels for electrophoresis. Once electrophoresis was completed, gels were placed on pre-soaked polyvinylidene difluoride membranes and blocked with 10% skimmed milk in 1 × Tris-buffered saline and Tween (TBST). Then, the blots were incubated with primary antibodies, followed by washing with TBST for 4 × 20 min. After this, the blots were incubated with the appropriate horseradish peroxidase (HRP)-conjugated secondary antibody, followed by washing again with TBST for 4 × 20 min. The protein bands were then detected with either ECL prime (Amersham^TM ECL^TM prime Western blotting detection reagent) or ECL select (Amersham^TM ECL^TM select Western blotting detection reagent) depending on the abundance of the protein of interest. The blots were imaged using the Bio-Rad ChemiDoc^TM MP imaging system (Bio-Rad Laboratories, Hercules, CA, USA). All the primary and secondary antibodies used in this study were purchased from Cell Signaling Technology (Danvers, MA, USA).

## Cc1cc(/C=C/C#N)cc(C)c1Nc1ccnc(Nc2ccc(C#N)cc2)n1 [rilpivirine, (E)-4-((4-((4-(2-cyanoethenyl)-2,6-dimethylphenyl)amino)pyrimidin-2-yl)amino)benzonitrile]
HL-60 cells; 5 μM
  G2-M cells: 31.15%
HL-60 cells; 10 µM
  G2-M cells: 40.70%
HL-60 cells; 10 µM, time course
  time of maximum accumulation in the G2/M phase: 16 h
HL-60 cells; 20 μM
  G2-M cells: 46.32%
K-562 cells
  G2-M cells: 46.23%
KG1 cells
  cell-cycle arrest: induced G2/M cell-cycle arrest
NB4 cells
  G2-M cells: 55.25%
U-937 cells
  G2-M cells: 36.61%
[1]
  caspase 3/7 activation vs untreated control: significantly increased
[2]
  CDK1 level: reduced
  Cdc25C (Ser198) phosphorylation: inhibited
  PARP and caspase 3 cleavage: increased
  Plk1 (Thr210) phosphorylation: inhibited
  anti-apoptotic protein Mcl-1: down-regulation
  cyclin B1 level: reduced
  phospho-Histone H3 (Ser10): induced
  phosphorylation of CENP (Ser7): inhibited
  total Aurora A: without affecting
[2]; concentration-dependent
  auto-phosphorylation of Aurora A at Thr288: suppressed

— publication PMC9954146, “Anti-Leukaemic Activity of Rilpivirine Is Mediated by Aurora A Kinase Inhibition” (Cancers, 2023)
